The values below come from patent US6528528B2 (Warner-Lambert Company, priority 1997, dated 2003).

The structures appear in SMILES notation.

System in the first data set: not given
Experiment: not given
Conditions: not given
Regarding `Cc1ccc(C(=O)Nc2ccccc2)cc1N` [Example 1, 3-Amino-4-methyl-N-phenyl-benzamide], the melting point fell in the range of 149 to 151 °C.

On to `COc1ccc(C(=O)Nc2ccc(Cl)cc2)cc1N` [Example 2, 3-Amino-4-methoxy-N-(4-chlorophenyl)-benzamide], for which the melting point was in the range of 191 to 192 °C.

Take `COc1ccc(C(=O)Nc2cccnc2)cc1N` [Example 5, 3-Amino-4-methoxy-N-(3-pyridyl)-benzamide]: the melting point is 193 to 196 °C.

Turning to `COc1ccc(C(=O)Nc2ccc(C)c(C)c2)cc1N` [Example 6, 3-Amino-4-methoxy-N-(3,4-dimethylphenyl)-benzamide], the melting point lay in the range of 138 to 142 °C.

With `COc1ccc(C(=O)Nc2ccc(C)cc2)cc1N` [Example 7, 3-Amino-4-methoxy-N-(4-methylphenyl)-benzamide], the melting point fell in the range of 190 to 194 °C.

`Nc1cc(C(=O)Nc2ccccc2)ccc1Cl` [Example 13, 3-Amino-4-chloro-N-phenyl-benzamide] showed a melting point of 194 to 197 °C.

In the case of `Nc1cc(NC(=O)c2ccc(Cl)c(Cl)c2)ccc1F` [Example 22, 3,4-Dichloro-N-(3-amino-4-fluorophenyl)-benzamide], the melting point fell in the range of 151 to 153 °C.

For the compound `COc1ccc(NC(=O)Nc2ccccc2)cc1N` [Example 24, 1-(3-Amino-4-methoxyphenyl)-3-phenyl-urea], the melting point lay in the range of 174 to 175 °C.

With `COc1ccc(NC(=O)c2ccccc2)cc1Nc1ccccc1` [Example 49, N-[3-(Phenylamino)-4-methoxy-phenyl]-benzamide], the melting point fell in the range of 209 to 210 °C.

Consider `COc1ccc(C(=O)Nc2cccnc2)cc1NC(=S)Nc1ccc(Cl)c(Cl)c1` [Example 100, 3-[3-(3,4-Dichlorophenyl)-thioureido]-4-methoxy-N-pyridin-3-yl-benzamide], for which the melting point was 179 to 180 °C.

`COc1ccc(C(=O)Nc2cc(C)cc(C)c2)cc1NC(=S)Nc1cccc(C)c1` [Example 103, N-(3,5-Dimethylphenyl)-4-methoxy-3-(3-m-tolyl-thioureido)-benzamide] came in with a melting point of 188 to 189 °C.

Take `COc1ccc(C(=O)Nc2ccc(Cl)c(Cl)c2)cc1NS(=O)(=O)c1cc(Cl)cc(Cl)c1` [Example 117, 3-(3,5-Dichloro-benzenesulfonylamino)-4-methoxy-N-(3,4-dichlorophenyl)-benzamide]: the melting point is > 230 °C (dec.).

The target in a further data set is T1, rabbit reticulocyte 15-LO (Oryctolagus cuniculus, UniProt P12530).
T1 construct: Fifteen-lipoxygenase was obtained from phenylhydrazine-treated rabbits and purified per the method of Rapoport; from tissue; host or cells: reticulocytes of phenylhydrazine-treated rabbits
T1 sequence (P12530 1-663): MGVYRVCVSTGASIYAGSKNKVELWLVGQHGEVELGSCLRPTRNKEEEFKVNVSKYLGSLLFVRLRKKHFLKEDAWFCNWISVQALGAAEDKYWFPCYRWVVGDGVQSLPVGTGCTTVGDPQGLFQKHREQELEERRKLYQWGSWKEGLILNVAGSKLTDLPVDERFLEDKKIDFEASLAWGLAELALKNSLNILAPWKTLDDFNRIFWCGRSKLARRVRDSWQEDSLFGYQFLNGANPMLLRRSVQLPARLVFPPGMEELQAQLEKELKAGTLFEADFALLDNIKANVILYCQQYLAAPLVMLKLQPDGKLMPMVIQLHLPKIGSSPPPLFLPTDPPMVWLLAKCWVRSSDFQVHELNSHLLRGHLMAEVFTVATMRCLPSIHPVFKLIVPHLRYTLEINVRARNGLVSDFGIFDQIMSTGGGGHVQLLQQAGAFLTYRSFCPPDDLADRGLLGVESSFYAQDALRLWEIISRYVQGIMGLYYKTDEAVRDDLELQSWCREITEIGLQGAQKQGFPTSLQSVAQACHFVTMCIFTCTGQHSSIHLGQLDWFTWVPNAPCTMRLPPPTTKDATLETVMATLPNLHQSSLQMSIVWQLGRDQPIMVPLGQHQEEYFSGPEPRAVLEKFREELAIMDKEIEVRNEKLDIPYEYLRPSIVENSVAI
Nature of the data set: Rabbit Reticulocyte 15-LO Assay (h15LO). It is filed as biochemical. Conditions: Table 1; 2U rabbit reticulocyte 15-LO, 174 μM linoleic acid, 15 minutes at 4° C. In short, it runs like this:
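Purified rabbit reticulocyte 15-LO (2U) incubated with inhibitor and 174 μM linoleic acid in PBS with 0.2% Na cholate for 15 minutes at 4° C. 13-HPODE quantified by peak area against 13-HODE standard curve; % inhibition relative to uninhibited reaction.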
For the compound `COc1ccc(C(=O)Nc2ccc(Cl)cc2)cc1N` [Example 2, 3-Amino-4-methoxy-N-(4-chlorophenyl)-benzamide], half-maximal inhibition (IC50) required 290 nM.

Turning to `COc1ccc(C(=O)Nc2cccnc2)cc1N` [Example 5, 3-Amino-4-methoxy-N-(3-pyridyl)-benzamide], the IC50 was 38 nM.

The data set is the same for the next values; noted with them: Table 1; @ 10 μM; read-out: h15LO % Inhibition at 10 μM.
For `COc1ccc(C(=O)Nc2ccc(C)c(C)c2)cc1N` [Example 6, 3-Amino-4-methoxy-N-(3,4-dimethylphenyl)-benzamide], the inhibition at 10 µM stood at 79%.

On to `COc1ccc(C(=O)Nc2ccc(C)cc2)cc1N` [Example 7, 3-Amino-4-methoxy-N-(4-methylphenyl)-benzamide], for which the inhibition at 10 µM is 67%.

The data set is the same for the next values; noted with them: Table 2; 2U rabbit reticulocyte 15-LO, 174 μM linoleic acid, 15 minutes at 4° C.
For `COc1ccc(NC(=O)c2ccc(Cl)c(Cl)c2)cc1NCc1cccc(F)c1` [Example 244, 3,4-Dichloro-N-[3-(3-fluoro-benzylamino)-4-methoxy-phenyl]-benzamide], the midpoint of inhibition, the IC50, lay at 86 nM.

For `COc1ccc(C(=O)Nc2ccccc2)cc1CNC(=S)Nc1cc(Cl)cc(Cl)c1` [Example 247, 3-[3-(3,5-Dichloro-phenyl)-thioureidomethyl]-4-methoxy-N-phenyl-benzamide], the IC50 came out at 40 nM.

`COc1ccc(C(=O)Nc2ccccc2)cc1NS(=O)(=O)c1cc(Cl)cc(Cl)c1` [Example 248, 3-(3,5-Dichloro-benzenesulfonylamino)-4-methoxy-N-phenyl-benzamide] registered an IC50 of 46 nM.

For the compound `COc1ccc(C(=O)Nc2ccccc2)cc1CNS(=O)(=O)c1cc(Cl)cc(Cl)c1` [Example 249, 3-[(3,5-Dichloro-benzenesulfonylamino)-methyl]-4-methoxy-N-phenyl-benzamide], 58 nM corresponded to half-maximal inhibition (IC50).

`COc1ccc(C(=O)Nc2ccc(F)c(F)c2)cc1NCc1cccs1` [Example 258, 4-Methoxy-3-[(thiophen-2-ylmethyl)-amino]-N-(3,4-difluoro-phenyl)-benzamide] had an IC50 of 35 nM.

`COc1ccc(C(=O)Nc2ccccc2)cc1NCc1cccs1` [Example 259, 4-Methoxy-3-[(thiophen-2-ylmethyl)-amino]-N-phenyl-benzamide] registered an IC50 of 137 nM.

`COc1ccc(C(=O)Nc2ccc(F)cc2)cc1NCc1cccs1` [Example 260, 4-Methoxy-3-[(thiophen-2-ylmethyl)-amino]-N-(4-fluoro-phenyl)-benzamide] displayed an IC50 of 186 nM.

Consider `COc1ccc(NC(=O)c2ccc(Cl)c(Cl)c2)cc1NCc1cccs1` [Example 264, 3,4-Dichloro-N-{4-methoxy-3-[(thiophen-2-ylmethyl)-amino]-phenyl}-benzamide], for which the IC50 came out at 37 nM.

`COc1ccc(C(=O)Nc2ccccc2)cc1NCc1ccc2c(c1)OCO2` [Example 266, 3-[(Benzo[1,3]dioxol-5-ylmethyl)-amino]-4-methoxy-N-phenyl-benzamide] had an IC50 of 197 nM.

In turn, `COc1ccc(C(=O)Nc2ccccc2)cc1NCc1cc(F)cc(F)c1` [Example 267, 4-Methoxy-3-(3,5-difluoro-benzylamino)-N-phenyl-benzamide] came in with an IC50 of 198 nM.

For the compound `COc1ccc(C(=O)Nc2ccccc2)cc1NCc1ccc(N(C)C)cc1` [Example 268, 3-(4-Dimethylamino-benzylamino)-4-methoxy-N-phenyl-benzamide], half-maximal inhibition (IC50) required 213 nM.

Turning to `COc1ccc(C(=O)Nc2ccccc2)cc1NCc1cccc(C(F)(F)F)c1` [Example 269, 4-Methoxy-3-(3-trifluoromethyl-benzylamino)-N-phenyl-benzamide], 221 nM corresponded to half-maximal inhibition (IC50).

Consider `COc1ccc(C(=O)Nc2ccccc2)cc1NCc1ccccc1F` [Example 270, 4-Methoxy-3-(2-fluoro-benzylamino)-N-phenyl-benzamide], for which it took 241 nM to reach half-maximal inhibition (IC50).

Consider `COc1ccc(C(=O)Nc2ccccc2)cc1NCc1ccc2c(c1)OCCO2` [Example 271], for which half-maximal inhibition (IC50) was put at 302 nM.

Compound `COc1ccc(C(=O)Nc2ccccc2)cc1NCc1ccc(O)cc1` [Example 272, 3-(4-Hydroxy-benzylamino)-4-methoxy-N-phenyl-benzamide] yielded an IC50 of 304 nM.

Compound `COc1ccc(C(=O)Nc2ccccc2)cc1NCc1cccc(C)c1` [Example 273, 4-Methoxy-3-(3-methyl-benzylamino)-N-phenyl-benzamide] showed an IC50 of 385 nM.

With `COc1ccc(C(=O)Nc2ccccc2)cc1NCc1ccc(F)c(F)c1` [Example 274, 3-(3,4-Difluoro-benzylamino)-4-methoxy-N-phenyl-benzamide], the IC50 came to 391 nM.

The data set is the same for the next values; noted with them: Table 2; concentration not given.
As for `COc1ccc(NC(=O)c2ccc(F)c(F)c2)cc1NCc1cccc(O)c1` [Example 245, 3,4-Difluoro-N-[3-(3-hydroxy-benzylamino)-4-methoxy-phenyl]-benzamide], the “h15LO, value given as bare %” value is given as 98.02%.

Regarding `COc1ccc(NC(=O)c2ccc(F)c(F)c2)cc1NCc1cccc(C(=O)O)c1` [Example 246, 3-{[5-(3,4-Difluoro-benzoylamino)-2-methoxy-phenylandno]-methyl}-benzoic Acid], the “h15LO, value given as bare %” value worked out at 59.75%.

For `COc1ccc(C(=O)Nc2ccccc2)cc1N(S(=O)(=O)c1cc(Cl)cc(Cl)c1)S(=O)(=O)c1cc(Cl)cc(Cl)c1` [Example 251, 3-[Bis[(3,5-dichlorophenyl)sulfonyl]amino]-4-methoxy-N-phenyl-benzamide], the “h15LO, value given as bare %” value was 62.01%.

As to `COc1ccc(C(=O)Nc2ccccc2)cc1NC(=S)Nc1cccc([N+](=O)[O-])c1` [Example 254, 4-Methoxy-3-[3-(3-nitro-phenyl)-thioureido]-N-phenyl-benzamide], the “h15LO, value given as bare %” value was found to be 51%.

Consider `Cc1ccc(C(=O)Nc2ccccc2)cc1NC(=O)c1cc(Cl)cc(Cl)c1` [Example 255, 3-[(3,5-Dichlorobenzoyl)amino]-4-methyl-N-phenyl-benzamide], for which the “h15LO, value given as bare %” value was determined as 47%.

As to `COc1ccc(C(=O)Nc2ccc(Cl)c(Cl)c2)cc1NCc1cccs1` [Example 261, 4-Methoxy-3-[(thiophen-2-ylmethyl)-amino]-N-(3,4-dichloro-phenyl)-benzamide], the “h15LO, value given as bare %” value is recorded as 98.57%.

`COc1ccc(C(=O)Nc2cccnc2)cc1NCc1cccs1` [Example 262, 4-Methoxy-3-[(thiophen-2-ylmethyl)-amino]-N-pyridin-3-yl-benzamide]: the “h15LO, value given as bare %” value turned out to be 67.58%.

In the case of `CCOC(=O)c1cccc(NC(=O)c2ccc(OC)c(NCc3cccs3)c2)c1` [Example 263, 3-{4-Methoxy-3-[(thiophen-2-ylmethyl)-amino]-benzoylamino}-benzoic Acid Ethyl Ester], the “h15LO, value given as bare %” value is 53.51%.

With `COc1ccc(NC(=O)c2ccc(F)c(F)c2)cc1NCc1cccs1` [Example 265, 3,4-Difluoro-N-{4-methoxy-3-[(thiophen-2-ylmethyl)-amino]-phenyl}-benzamide], the “h15LO, value given as bare %” value is 98.89%.

For orientation: melting point means the temperature, or range, at which the solid turns liquid. As usually defined, the IC50 is the concentration that inhibits the measured activity by half. Read a high IC50 as weaker potency in that assay. For orientation: inhibition means the relative decrease from the control value, in per cent.
